The values that follow come from patent publication US20240318182A1, “METHODS OF TREATING OR PREVENTING SPINAL MUSCULAR ATROPHY” (BIOGEN MA INC., priority 2019, published 2024).

One series has as its system pNf-H. Description: Plasma pNf-H biomarker in nusinersen clinical trials. It counts as in vivo, human. The conditions noted are these: SMA types 1, 2 and presymptomatic infants. From the text: In nusinersen clinical trials with SMA types 1, 2 and presymptomatic infants, plasma pNf-H differentiated SMA individuals from healthy controls. […] Thus assessing the levels of neurofilament (e.g., pNf-H and/or NfL) can be a helpful biomarker prior or during treatment.

For series [1] the following is noted: human, in vivo.
Experimental: In studies to explore the relationship between nusinersen exposure and clinical response, data from subjects with infantile-onset SMA (subjects <6 months of age at diagnosis or symptom onset) were used. Analyses were conducted to characterize a quantitative PK/PD relationship for nusinersen and to determine if higher nusinersen exposure is associated with additional efficacy in the infantile-onset SMA population.
Series [2] deals with subjects with infantile-onset SMA. Description: Exposure-response and motor function / motor milestones in nusinersen clinical studies. It counts as in vivo, human. The procedure: During the nusinersen clinical development program, an exploratory exposure-response analysis was conducted using data for 14 subjects with infantile-onset SMA who received nusinersen. […] All subjects received maintenance doses of 12 mg every 4 months after Day 85. Separation of the response curves for the 2 cohorts began around Day 29 and became wider over the course of the study.

The next series relates to nonhuman primate. The experiment in a line: Nonhuman primate safety studies. It counts as in vivo.
For series [3], the system named is subjects with infantile-onset SMA. Description: PK/PD (Emax) model of CSF Ctrough versus change from baseline in CHOP-INTEND. The conditions noted are these: model projection. The arrangement: species or system human. From the text:
Dashed (long), solid, and dashed (shorter) line represents the predicted PK/PD relationship when Emax was fixed at 10, 25, and 40, respectively. The observed data are divided based on 10 quantiles of CSF Ctrough values. The empty and filled circles represent the mean observed and predicted change in CHOP-INTEND from baseline, respectively.

Regarding nusinersen, the “plasma pNf-H after treatment initiation” value in the series on pNf-H is given as “rapid decline followed by stabilization”. The “maximum mean [SD] CSF Ctrough” value in series [1] was 31.3 [24.8] ng/mL. The “attainment of motor milestones” value in series [2] (12 mg loading doses versus 6 mg loading doses on Days 1, 15, 85, infantile-onset SMA) is “earlier and greater improvement”. In addition, the “correlation between nusinersen CSF exposure and motor function” value in series [2] (14 subjects with infantile-onset SMA, exploratory exposure-response analysis) is reported as “statistically significant positive correlation”. For the same substance, the “correlation between CSF Ctrough and total motor milestones scores” value in series [2] (infantile- or later-onset SMA, 12 mg as 4 loading doses then every 4 months, preliminary analysis, data not shown) is on record as “positive correlation”. In addition, the “improvement in motor function” value in series [2] (more frequent dosing: 12 mg loading Days 1, 15, 29, 64, 12 mg maintenance every 4 months, infantile-onset SMA) is given as “Greater improvement”. In the series on nonhuman primate, the “safety of 28 and 50 mg doses” value is “support the use of these doses”. In series [3], the “CSF Ctrough that will achieve 90% of the maximum observed response” value worked out at 23 ng/mL.
